Measured values published in patent US20220296595A1, “CDK INHIBITORS” (QILU REGOR THERAPEUTICS INC., priority 2019, published 2022).
pIC50: −log10 of the molar value.

molecular target: T1, CDK4/CyclinD1 (Homo sapiens, UniProt P11802); experiment: Assay for inhibition of CDK4/CyclinD1 (Caliper microfluidic kinase assay); format: biochemical; conditions: CDK4/CyclinD1
T1 construct: purchased Thermofisher PR8064A
Experimental: The CDK4 enzyme assay for IC50 determination was performed as follows. Microfluidic kinase detection technology (Caliper) was used to monitor the phosphorylation of peptide substrate by CDK4/CyclinD1. The total reaction volume was 15 μL containing buffer A (100 mM HEPES (pH 7.5), 0.1% BSA, 0.01% Triton X-100, 1 mM DTT, 10 mM MgCl2, 10 μM Sodium Orthovanadate, 10 μM Beta-Glycerophosphate), 200 μM ATP, 1 nM CDK4/CyclinD1 (Thermofisher, PR8064A), 1 μM FL-34 (5-FAM-[…]), and the test compound at appropriate dilutions in DMSO. All components were added to the 384-well plate (Corning, 4514), and incubated at Room Temperature for 3 hours. The reaction was terminated by addition of 15 μL Stop Buffer (180 mM HEPES (pH 7.5), 20 mM EDTA, Coating-3 reagent (PerkinElmer, 760050)). The plate was then loaded on Caliper EZ Reader (EZ Reader II, PerkinElmer, HD-4HYSG2772), and the reaction mixtures including substrate and product were sipped into the microfluidic chip for separation and detection. The IC50 values of the test compound were determined by fitting the inhibition curves by 4 parameter sigmoidal dose-response model using the Xlfit5/GraphPad Prism 5 software.

T1 sequence (P11802 whole entry): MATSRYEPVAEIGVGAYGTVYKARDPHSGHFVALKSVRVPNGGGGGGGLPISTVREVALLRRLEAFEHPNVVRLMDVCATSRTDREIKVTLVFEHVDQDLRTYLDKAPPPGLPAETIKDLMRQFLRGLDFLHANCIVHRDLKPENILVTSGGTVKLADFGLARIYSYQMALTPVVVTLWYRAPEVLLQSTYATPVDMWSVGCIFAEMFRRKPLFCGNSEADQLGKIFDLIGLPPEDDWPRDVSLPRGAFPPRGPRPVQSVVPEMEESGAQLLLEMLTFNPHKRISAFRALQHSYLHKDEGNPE
T1 sequence (P24385 whole entry partner): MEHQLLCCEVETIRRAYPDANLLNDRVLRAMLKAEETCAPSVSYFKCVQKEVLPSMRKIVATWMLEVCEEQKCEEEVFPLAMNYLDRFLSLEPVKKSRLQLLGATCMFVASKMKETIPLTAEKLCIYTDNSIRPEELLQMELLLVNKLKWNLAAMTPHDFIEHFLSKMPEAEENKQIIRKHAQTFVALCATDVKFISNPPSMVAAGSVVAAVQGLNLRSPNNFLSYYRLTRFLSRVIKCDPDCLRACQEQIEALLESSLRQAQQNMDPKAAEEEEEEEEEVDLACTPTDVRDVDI

`COc1nc(-c2nc(Nc3ccc(N4CCOCC4=O)cn3)ncc2F)cc2c1nc(C)n2C(C)CO` (centres unmarked) [compound 72] and `COc1nc(-c2nc(Nc3ccc(N4CCOCC4=O)cn3)ncc2F)cc2c1nc(C)n2C1CCCC1O` (centres unmarked) [compound 71] fall in the same range of pIC50: 7.00 to 8.00 for the first, 7.00 to 8.00 for the second.

`CCN1CCN(c2ccc(Nc3ncc(F)c(-c4cc5c(nc(C)n5C(C)C)c(OC)n4)n3)nc2)C1=O` [compound 89] and `COc1nc(-c2nc(Nc3ccc(N4CCOCC4C)cn3)ncc2F)cc2c1nc(C)n2C(C)C` (centres unmarked) [compound 97] fall in the same range of pIC50: 7.00 to 8.00 for the first, 7.00 to 8.00 for the second.

same assay, conditions: CDK4/CyclinD1, 200 μM ATP

`COc1cc(N2CCC(N(C)C)CC2=O)ccc1Nc1nccc(-c2cc3c(ncn3C(C)C)c(F)n2)n1` (centres unmarked) [compound 296] and `CC(C)n1cnc2c(F)nc(-c3ccnc(Nc4ccc(N5CCC(C)(N)CC5=O)cc4Cl)n3)cc21` (centres unmarked) [compound 291] cannot be ordered by pIC50: greater than 8.00 for the first, greater than 8.00 for the second.

`CC(C)c1cnn2ccc(-c3ccnc(Nc4ccc(N5CCNCC5=O)c(F)c4F)n3)cc12` [compound 229] and `CC(C)c1cnn2ccc(-c3ccnc(Nc4ccc(N5CCNCC5=O)c(F)c4)n3)cc12` [compound 228] cannot be ordered by pIC50: greater than 8.00 for the first, greater than 8.00 for the second.

`COc1nc(-c2nc(Nc3ccc(N4CCNC5(CC5)C4)cn3)ncc2F)cc2c1nc(C)n2C(C)C` [compound 110] and `COc1nc(-c2nc(Nc3ccc(C(=O)N4CCC(N)CC4)c(C)n3)ncc2F)cc2c1nc(C)n2C(C)C` [compound 120] fall in the same range of pIC50: 7.00 to 8.00 for the first, 7.00 to 8.00 for the second.

First: COc1cc(N2CCCC(N)C2=O)ccc1Nc1nccc(-c2ccn3ncc(C(C)C)c3c2)n1 (centres unmarked) [compound 222]
Second: CC(C)c1cnn2ccc(-c3ccnc(Nc4ccc(N5CCCC(N)C5=O)cc4F)n3)cc12 (centres unmarked) [compound 223]
The pIC50 of the first is lower: 7.00 to 8.00 for the first, greater than 8.00 for the second. The second is the more potent here.

First: CC(C)n1cnc2c1CN(c1nc(Nc3ccc(S(N)(=O)=O)nc3)ncc1F)CC2 [compound 254]
Second: CC(C)n1cnc2c1CN(c1nc(Nc3ccc4c(c3)CS(=O)(=O)C4)ncc1F)CC2 [compound 255]
The pIC50 of the first is lower: 7.00 to 8.00 for the first, greater than 8.00 for the second.

First: CC(C)c1cnn2ccc(-c3ccnc(Nc4ccc(C(=O)N5CCC(O)CC5)cc4)n3)cc12 [compound 149]
Second: CC(C)c1cnn2ccc(-c3ccnc(Nc4ccc(C(=O)N5CCC(N(C)C)CC5)cc4)n3)cc12 [compound 148]
The pIC50 of the first is lower: 7.00 to 8.00 for the first, greater than 8.00 for the second. The second is the more potent here.

`CCNC1CCN(c2ccc(Nc3nccc(-c4ccn5ncc(C(C)C)c5c4)n3)c(F)c2)C(=O)C1` (centres unmarked) [compound 230] and `CNC1CCCN(c2ccc(Nc3nccc(-c4ccn5ncc(C(C)C)c5c4)n3)c(F)c2)C1=O` (centres unmarked) [compound 231] cannot be ordered by pIC50: greater than 8.00 for the first, greater than 8.00 for the second.

First: CC(C)n1cnc2c(F)nc(-c3ccnc(NC4CCN(S(C)(=O)=O)CC4)n3)cc21 [compound 310]
Second: CCN1CCN(c2ccc(Nc3nccc(-c4cc5c(ncn5C(C)C)c(F)n4)n3)nc2)C(=O)C1 [compound 274]
The pIC50 of the first is lower: 7.00 to 8.00 for the first, greater than 8.00 for the second. The second is the more potent here.

Compared with `CN(C)C1CCN(c2ccc(Nc3nccc(-c4ccn5ncc(C(C)(C)C)c5c4)n3)c(F)c2)C(=O)C1` (centres unmarked) [compound 181], `Cc1cc(N2CCNCC2=O)ccc1Nc1nccc(-c2ccn3ncc(C(C)C)c3c2)n1` [compound 186] is lower in pIC50: greater than 8.00 for the first, 7.00 to 8.00 for the second.

`CC(C)c1cnn2ccc(-c3ccnc(Nc4ccc(C(=O)N5CCC(N(C)C)C5)cc4)n3)cc12` (centres unmarked) [compound 151] and `CC(C)c1cnn2ccc(-c3ccnc(Nc4ccc(C(=O)N5CC(O)C5)cc4)n3)cc12` [compound 153] cannot be ordered by pIC50: greater than 8.00 for the first, greater than 8.00 for the second.

`CC(C)c1cnn2ccc(-c3ccnc(Nc4cccc(N5CCNCC5=O)c4)n3)cc12` [compound 187] gave a pIC50 of 7.00 to 8.00.

molecular target: T2, CDK2/CyclinE1 (Homo sapiens, UniProt P24941); experiment: Assay for inhibition of CDK2/CyclinE1 (Caliper microfluidic kinase assay); format: biochemical; conditions: CDK2/CyclinE1, 100 μM ATP; read-out: CDK2 IC50
T2 construct: purchased SignalChem C29-18G
Experimental: The CDK2 enzyme assay for IC50 determination was performed as follows. Microfluidic kinase detection technology (Caliper) was used to monitor the phosphorylation of peptide substrate by CDK2/CyclinE1. The total reaction volume was 15 μL containing buffer A (100 mM HEPES (pH 7.5), 0.1% BSA, 0.01% Triton X-100, 1 mM DTT, 10 mM MgCl2, 10 μM Sodium Orthovanadate, 10 μM Beta-Glycerophosphate), 100 μM ATP, 5 nM CDK2/CyclinE1 (SignalChem, C29-18G), 5 μM FL-18 (5-FAM-QSPKKG-NH2), and the test compound at appropriate dilutions in DMSO. All components were added to the 384-well plate (Corning, 4514), and incubate at Room Temperature for 3 hours. The reaction was terminated by addition of 15 μL Stop Buffer (180 mM HEPES (pH 7.5), 20 mM EDTA, Coating-3 reagent (PerkinElmer, 760050)). The plate was loaded on Caliper EZ Reader (EZ Reader II, PerkinElmer, HD-4HYSG2772), and the reaction mixtures including substrate and product were sipped into the microfluidic chip for separation and detection. The IC50 values of the test compound were determined by fitting the inhibition curves by 4 parameter sigmoidal dose-response model using the Xlfit5/GraphPad Prism 5 software.

`COc1cc(N2CCC(N(C)C)CC2=O)ccc1Nc1nccc(-c2cc3c(ncn3C(C)C)c(F)n2)n1` (centres unmarked) [compound 296] and `CC(C)n1cnc2c(F)nc(-c3ccnc(Nc4ccc(N5CCC(C)(N)CC5=O)cc4Cl)n3)cc21` (centres unmarked) [compound 291] cannot be ordered by pIC50: greater than 8.00 for the first, greater than 8.00 for the second.

`CC(C)c1cnn2ccc(-c3ccnc(Nc4ccc(N5CCNCC5=O)c(F)c4F)n3)cc12` [compound 229] and `CC(C)c1cnn2ccc(-c3ccnc(Nc4ccc(N5CCNCC5=O)c(F)c4)n3)cc12` [compound 228] cannot be ordered by pIC50: greater than 8.00 for the first, greater than 8.00 for the second.

`COc1nc(-c2nc(Nc3ccc(N4CCNC5(CC5)C4)cn3)ncc2F)cc2c1nc(C)n2C(C)C` [compound 110] and `COc1nc(-c2nc(Nc3ccc(C(=O)N4CCC(N)CC4)c(C)n3)ncc2F)cc2c1nc(C)n2C(C)C` [compound 120] cannot be ordered by pIC50: less than 6.00 for the first, less than 6.00 for the second.

`COc1cc(N2CCCC(N)C2=O)ccc1Nc1nccc(-c2ccn3ncc(C(C)C)c3c2)n1` (centres unmarked) [compound 222] and `CC(C)c1cnn2ccc(-c3ccnc(Nc4ccc(N5CCCC(N)C5=O)cc4F)n3)cc12` (centres unmarked) [compound 223] fall in the same range of pIC50: 7.00 to 8.00 for the first, 7.00 to 8.00 for the second.

`CC(C)n1cnc2c1CN(c1nc(Nc3ccc(S(N)(=O)=O)nc3)ncc1F)CC2` [compound 254] and `CC(C)n1cnc2c1CN(c1nc(Nc3ccc4c(c3)CS(=O)(=O)C4)ncc1F)CC2` [compound 255] cannot be ordered by pIC50: greater than 8.00 for the first, greater than 8.00 for the second.

`CC(C)c1cnn2ccc(-c3ccnc(Nc4ccc(C(=O)N5CCC(O)CC5)cc4)n3)cc12` [compound 149] and `CC(C)c1cnn2ccc(-c3ccnc(Nc4ccc(C(=O)N5CCC(N(C)C)CC5)cc4)n3)cc12` [compound 148] cannot be ordered by pIC50: greater than 8.00 for the first, greater than 8.00 for the second.

Compared with `CCNC1CCN(c2ccc(Nc3nccc(-c4ccn5ncc(C(C)C)c5c4)n3)c(F)c2)C(=O)C1` (centres unmarked) [compound 230], `CNC1CCCN(c2ccc(Nc3nccc(-c4ccn5ncc(C(C)C)c5c4)n3)c(F)c2)C1=O` (centres unmarked) [compound 231] is lower in pIC50: greater than 8.00 for the first, 7.00 to 8.00 for the second. The first is the more potent here.

First: CC(C)n1cnc2c(F)nc(-c3ccnc(NC4CCN(S(C)(=O)=O)CC4)n3)cc21 [compound 310]
Second: CCN1CCN(c2ccc(Nc3nccc(-c4cc5c(ncn5C(C)C)c(F)n4)n3)nc2)C(=O)C1 [compound 274]
The pIC50 of the first is higher: 7.00 to 8.00 for the first, 6.00 to 7.00 for the second.

`CN(C)C1CCN(c2ccc(Nc3nccc(-c4ccn5ncc(C(C)(C)C)c5c4)n3)c(F)c2)C(=O)C1` (centres unmarked) [compound 181] and `Cc1cc(N2CCNCC2=O)ccc1Nc1nccc(-c2ccn3ncc(C(C)C)c3c2)n1` [compound 186] cannot be ordered by pIC50: greater than 8.00 for the first, greater than 8.00 for the second.

`CC(C)c1cnn2ccc(-c3ccnc(Nc4ccc(C(=O)N5CCC(N(C)C)C5)cc4)n3)cc12` (centres unmarked) [compound 151] and `CC(C)c1cnn2ccc(-c3ccnc(Nc4ccc(C(=O)N5CC(O)C5)cc4)n3)cc12` [compound 153] cannot be ordered by pIC50: greater than 8.00 for the first, greater than 8.00 for the second.

For `CC(C)c1cnn2ccc(-c3ccnc(Nc4cccc(N5CCNCC5=O)c4)n3)cc12` [compound 187], the pIC50 was 7.00 to 8.00.

same assay, conditions: CDK2/CyclinE1; read-out: CDK2 IC50

`COc1nc(-c2nc(Nc3ccc(N4CCOCC4=O)cn3)ncc2F)cc2c1nc(C)n2C(C)CO` (centres unmarked) [compound 72] and `COc1nc(-c2nc(Nc3ccc(N4CCOCC4=O)cn3)ncc2F)cc2c1nc(C)n2C1CCCC1O` (centres unmarked) [compound 71] cannot be ordered by pIC50: less than 6.00 for the first, less than 6.00 for the second.

`CCN1CCN(c2ccc(Nc3ncc(F)c(-c4cc5c(nc(C)n5C(C)C)c(OC)n4)n3)nc2)C1=O` [compound 89] and `COc1nc(-c2nc(Nc3ccc(N4CCOCC4C)cn3)ncc2F)cc2c1nc(C)n2C(C)C` (centres unmarked) [compound 97] cannot be ordered by pIC50: less than 6.00 for the first, less than 6.00 for the second.
